Experimental data from US6576675B1, “Z-styryl sulfone anticancer agents” (Temple University - Of the Commonwealth System of Higher …, priority 1999, dated 2003).

Columns and labels:
Format in all cases: cell-based
[1] = system: Ovarian cell lines: OVCAR, SKOV3; assay: Viability assay (Trypan blue exclusion), ovarian tumor cell lines; conditions: Homo sapiens, 2.5 mM, 72 hours, read-out: % Death, tumor cell type Ovarian
Procedure: (§1) The effect of the Z-styryl sulfones on normal fibroblasts and on tumor cells of breast, prostate and ovarian origin was examined utilizing the following cell lines: breast tumor cell lines: MCF-7, BT-20 and 435; prostate tumor cell lines LnCaP and DU-145; and ovarian tumor cell lines OVCAR and SKOV3. NIH/3T3 and HFL cells, which are normal murine and human fibroblasts, respectively, were also tested. LnCap is an androgen-dependent prostate tumor cell line. MCF-7 is an estrogen-responsive breast tumor cell line, while BT-20 and 435 are estrogen-unresponsive breast tumor cell lines. MCF-7, BT-20 and 435 were grown in Dulbecco's modified Eagle's medium (DMEM) containing 10% fetal bovine serum supplemented with penicillin and streptomycin. LnCaP and Du145 were cultured in RPMI with 10% fetal bovine serum containing penicillin and streptomycin. NIH3T3 and HFL cells were grown in DMEM containing 10% calf serum supplemented with penicillin and streptomycin. All cell cultures were maintained at 37° C. in a humidified atmosphere of 5% CO2.
(§2) Cells were treated with test compound at 2.5 mM concentration and cell viability was determined after 72 hours by the Trypan blue exclusion method.
(§3) Activity for each compound is reported as a range of cell induced death (% Death) with the lowest activity in the range of 10-20% and the highest being above 75%.

[2] = system: Renal cell lines: CAKI-1, CAKI-2; assay: Viability assay (Trypan blue exclusion), renal tumor cell lines; conditions: 2.5 mM, 72 hours, read-out: % Death, tumor cell type Renal
Procedure: as §2, §3
(§4) The procedure of Example 22 was followed for certain of the (Z)-benzylsulfones, substituting the following cancer cell lines: lung, N417 and H157; renal, CAKI-1 and CAKI-2; glioma, U87 and SW1088.

[3] = system: Glioma cell lines: U87, SW1088; assay: Viability assay (Trypan blue exclusion), glioma cell lines; conditions: Homo sapiens, 2.5 mM, 72 hours, read-out: % Death, tumor cell type Glioma
Procedure: as §2, §3, §4

[4] = system: Prostate cell lines: LnCaP, DU-145; assay: Viability assay (Trypan blue exclusion), prostate tumor cell lines; conditions: 2.5 mM, 72 hours, read-out: % Death, tumor cell type Prostate
Procedure: as §1, §2, §3

[5] = system: Breast cell lines: MCF-7, BT-20, 435; assay: Viability assay (Trypan blue exclusion), breast tumor cell lines; conditions: 2.5 mM, 72 hours, read-out: % Death, tumor cell type Breast
Procedure: as §1, §2, §3

[6] = system: Lung cell lines: N417, H157; assay: Viability assay (Trypan blue exclusion), lung tumor cell lines; conditions: 2.5 mM, 72 hours, read-out: % Death, tumor cell type Lung
Procedure: as §2, §3, §4

## O=S(=O)(/C=C\c1ccc(Br)cc1)Cc1ccc(Cl)cc1 [Example 14, Z-4-Bromostyryl 4-Chlorobenzylsulfone]
[1]
  cytotoxicity at 2500 µM: > 75%
[2]
  cytotoxicity at 2500 µM: > 75%
[3]
  cytotoxicity at 2500 µM: > 75%
[4]
  cytotoxicity at 2500 µM: > 75%
[5]
  cytotoxicity at 2500 µM: > 75%
[6]
  cytotoxicity at 2500 µM: > 75%

## O=S(=O)(/C=C\c1ccc(Cl)cc1)Cc1ccc(F)cc1 [Example 8, Z-4-Chlorostyryl 4-Fluorobenzylsulfone]
[1]
  cytotoxicity at 2500 µM: > 75%
[2]
  cytotoxicity at 2500 µM: > 75%
[3]
  cytotoxicity at 2500 µM: > 75%
[4]
  cytotoxicity at 2500 µM: > 75%
[5]
  cytotoxicity at 2500 µM: > 75%
[6]
  cytotoxicity at 2500 µM: > 75%

## O=S(=O)(/C=C\c1ccc(Cl)cc1)Cc1ccccc1 [Example 5, Z-4-Chlorostyryl Benzylsulfone]
[1]
  cytotoxicity at 2500 µM: 20 to 25%
[2]
  cytotoxicity at 2500 µM: 20 to 25%
[3]
  cytotoxicity at 2500 µM: 20 to 25%
[4]
  cytotoxicity at 2500 µM: 20 to 25%
[5]
  cytotoxicity at 2500 µM: 20 to 25%
[6]
  cytotoxicity at 2500 µM: 20 to 25%

## Cc1ccc(/C=C\S(=O)(=O)Cc2ccc(F)cc2)cc1 [Example 20, Z-4-Methylstyryl 4-Fluorobenzylsulfone]
[1]
  cytotoxicity at 2500 µM: 20 to 25%
[2]
  cytotoxicity at 2500 µM: 20 to 25%
[3]
  cytotoxicity at 2500 µM: 20 to 25%
[4]
  cytotoxicity at 2500 µM: 20 to 25%
[5]
  cytotoxicity at 2500 µM: 20 to 25%
[6]
  cytotoxicity at 2500 µM: 20 to 25%

## O=S(=O)(/C=C\c1ccc(F)cc1)Cc1ccccc1 [Example 9, Z-4-Fluorostyryl Benzylsulfone]
[1]
  cytotoxicity at 2500 µM: 20 to 25%
[4]
  cytotoxicity at 2500 µM: 20 to 25%
[5]
  cytotoxicity at 2500 µM: 20 to 25%

## O=S(=O)(/C=C\c1ccc(Cl)cc1)Cc1ccc(Cl)cc1 [Example 6, Z-4-Chlorostyryl 4-Chlorobenzylsulfone]
[1]
  cytotoxicity at 2500 µM: 60 to 70%
[2]
  cytotoxicity at 2500 µM: 60 to 70%
[3]
  cytotoxicity at 2500 µM: 60 to 70%
[4]
  cytotoxicity at 2500 µM: 60 to 70%
[5]
  cytotoxicity at 2500 µM: 60 to 70%
[6]
  cytotoxicity at 2500 µM: 60 to 70%

## O=S(=O)(/C=C\c1ccc(Br)cc1)Cc1ccccc1Cl [Example 15, Z-4-Bromostyryl 2-Chlorobenzylsulfone]
[1]
  cytotoxicity at 2500 µM: 20 to 25%
[2]
  cytotoxicity at 2500 µM: 20 to 25%
[3]
  cytotoxicity at 2500 µM: 20 to 25%
[4]
  cytotoxicity at 2500 µM: 20 to 25%
[5]
  cytotoxicity at 2500 µM: 20 to 25%
[6]
  cytotoxicity at 2500 µM: 20 to 25%

## O=S(=O)(/C=C\c1ccc(Cl)cc1)Cc1ccccc1Cl [Example 7, Z-4-Chlorostyryl 2-Chlorobenzylsulfone]
[1]
  cytotoxicity at 2500 µM: 20 to 25%
[2]
  cytotoxicity at 2500 µM: 20 to 25%
[3]
  cytotoxicity at 2500 µM: 20 to 25%
[4]
  cytotoxicity at 2500 µM: 20 to 25%
[5]
  cytotoxicity at 2500 µM: 20 to 25%
[6]
  cytotoxicity at 2500 µM: 20 to 25%

## O=S(=O)(/C=C\c1ccccc1)Cc1ccccc1 [Example 1, Z-styryl Benzylsulfone]
[1]
  cytotoxicity at 2500 µM: 10 to 20%
[4]
  cytotoxicity at 2500 µM: 10 to 20%
[5]
  cytotoxicity at 2500 µM: 10 to 20%

## O=S(=O)(/C=C\c1ccc(F)cc1)Cc1ccc(F)cc1 [Example 12, Z-4-Fluorostyryl 4-Fluorobenzylsulfone]
[1]
  cytotoxicity at 2500 µM: 40 to 50%
[2]
  cytotoxicity at 2500 µM: 40 to 50%
[3]
  cytotoxicity at 2500 µM: 40 to 50%
[4]
  cytotoxicity at 2500 µM: 40 to 50%
[5]
  cytotoxicity at 2500 µM: 40 to 50%
[6]
  cytotoxicity at 2500 µM: 40 to 50%

## O=S(=O)(/C=C\c1ccc(F)cc1)Cc1ccc(Cl)cc1 [Example 10, Z-4-Fluorostyryl 4-Chlorobenzylsulfone]
[1]
  cytotoxicity at 2500 µM: 60 to 70%
[2]
  cytotoxicity at 2500 µM: 60 to 70%
[3]
  cytotoxicity at 2500 µM: 60 to 70%
[4]
  cytotoxicity at 2500 µM: 60 to 70%
[5]
  cytotoxicity at 2500 µM: 60 to 70%
[6]
  cytotoxicity at 2500 µM: 60 to 70%

## O=S(=O)(/C=C\c1ccccc1)Cc1ccc(F)cc1 [Example 4, Z-styryl 4-Fluorobenzylsulfone]
[1]
  cytotoxicity at 2500 µM: 20 to 25%
[4]
  cytotoxicity at 2500 µM: 20 to 25%
[5]
  cytotoxicity at 2500 µM: 20 to 25%

## O=S(=O)(/C=C\c1ccccc1)Cc1ccccc1Cl [Example 3, Z-styryl 2-Chlorobenzylsulfone]
[1]
  cytotoxicity at 2500 µM: 20 to 25%
[4]
  cytotoxicity at 2500 µM: 20 to 25%
[5]
  cytotoxicity at 2500 µM: 20 to 25%

## O=S(=O)(/C=C\c1ccc(Br)cc1)Cc1ccc(F)cc1 [Example 16, Z-4-Bromostyryl 4-Fluorobenzylsulfone]
[1]
  cytotoxicity at 2500 µM: 60 to 70%
[2]
  cytotoxicity at 2500 µM: 60 to 70%
[3]
  cytotoxicity at 2500 µM: 60 to 70%
[4]
  cytotoxicity at 2500 µM: 60 to 70%
[5]
  cytotoxicity at 2500 µM: 60 to 70%
[6]
  cytotoxicity at 2500 µM: 60 to 70%

## O=S(=O)(/C=C\c1ccc(F)cc1)Cc1ccccc1Cl [Example 11, Z-4-Fluorostyryl 2-Chlorobenzylsulfone]
[1]
  cytotoxicity at 2500 µM: 20 to 25%
[2]
  cytotoxicity at 2500 µM: 20 to 25%
[3]
  cytotoxicity at 2500 µM: 20 to 25%
[4]
  cytotoxicity at 2500 µM: 20 to 25%
[5]
  cytotoxicity at 2500 µM: 20 to 25%
[6]
  cytotoxicity at 2500 µM: 20 to 25%

## Cc1ccc(/C=C\S(=O)(=O)Cc2ccccc2)cc1 [Example 17, Z-4-Methylstyryl Benzylsulfone]
[1]
  cytotoxicity at 2500 µM: 20 to 25%
[4]
  cytotoxicity at 2500 µM: 20 to 25%
[5]
  cytotoxicity at 2500 µM: 20 to 25%

## Cc1ccc(/C=C\S(=O)(=O)Cc2ccc(Cl)cc2)cc1 [Example 18, Z-4-Methylstyryl 4-Chlorobenzylsulfone]
[1]
  cytotoxicity at 2500 µM: 20 to 25%
[2]
  cytotoxicity at 2500 µM: 20 to 25%
[3]
  cytotoxicity at 2500 µM: 20 to 25%
[4]
  cytotoxicity at 2500 µM: 20 to 25%
[5]
  cytotoxicity at 2500 µM: 20 to 25%
[6]
  cytotoxicity at 2500 µM: 20 to 25%

## O=S(=O)(/C=C\c1ccccc1)Cc1ccc(Cl)cc1 [Example 2, Z-styryl 4-Chlorobenzylsulfone]
[1]
  cytotoxicity at 2500 µM: 20 to 25%
[4]
  cytotoxicity at 2500 µM: 20 to 25%
[5]
  cytotoxicity at 2500 µM: 20 to 25%

## O=S(=O)(/C=C\c1ccc(Br)cc1)Cc1ccccc1 [Example 13, Z-4-Bromostyryl Benzylsulfone]
[1]
  cytotoxicity at 2500 µM: 20 to 25%
[4]
  cytotoxicity at 2500 µM: 20 to 25%
[5]
  cytotoxicity at 2500 µM: 20 to 25%

## Cc1ccc(/C=C\S(=O)(=O)Cc2ccccc2Cl)cc1 [Example 19, Z-4-Methylstyryl 2-Chlorobenzylsulfone]
[1]
  cytotoxicity at 2500 µM: 20 to 25%
[4]
  cytotoxicity at 2500 µM: 20 to 25%
[5]
  cytotoxicity at 2500 µM: 20 to 25%
